Measured values as given in patent US8618068B2, “Methods and low dose regimens for treating red blood cell disorders” (priority 2009, dated 2013).
Values joined by “and” are separate entries in the source; they are usually repeats but may differ in a detail not shown here. Equal values may be shown once.

How the values were obtained:
[1] = system: γ globin chain; assay: γ globin chain protein synthesis in anemic baboons; assay type: in vivo; details: mean of three animals
Experimental: Expression of γ-globin and erythroid cell production was evaluated in a primate model in which baboons are phlebotomized on a daily basis to simulate the chronic RBC destruction associated with hemoglobinopathies. In this model, baboons, aged 2 to 3 years, had 2.5 to 7 mL/kg of blood withdrawn daily, and the volume replaced with an identical volume of normal saline. Hemoglobin levels were lowered relative to control levels, but were maintained between 6.5 to 7.5 g/dL, the level necessary for the modulation of globin genes in this animal species. The animals were supplemented with iron dextran and folic acid. The phlebotomy regimen effectively exchanged the animals' total blood volume every 10 to 20 days.
Globin chain protein synthesis was measured in DMB treated animals using ^3H-leucine-labeled reticulocytes before and 2 and 4 days after treatment. Complete blood counts and reticulocyte counts were monitored 3 times per week and plasma concentrations of the test article was determined. DMB was administered intravenously (IV, daily) or orally via nasogastric gavage under light anesthesia (on 3 alternating days per week for up to 6 weeks), on a dose-escalation schedule with starting doses of 500 to 800 mg/kg. If γ globin induction was observed, lower doses (40-200 mg/kg) were tested. Recombinant human erythropoietin (rhu-EPO) was also administered in separate treatment courses to 2 baboons at doses of 300 U/kg three times per week subcutaneously as a positive control for the erythropoietic effects of DMB. Treatments were performed in individual baboons.
Induction of γ globin chain expression was evaluated by measuring γ globin protein synthesis.

[2] = molecular target: T1, hERG channels (Homo sapiens, UniProt Q12809); assay: hERG channel, voltage-clamped human embryonic kidney cells; assay type: cell-based; details: concentrations up to 1 mM (138 μg/mL)
T1 construct: expressed in transfected cells
T1 sequence (Q12809 whole entry): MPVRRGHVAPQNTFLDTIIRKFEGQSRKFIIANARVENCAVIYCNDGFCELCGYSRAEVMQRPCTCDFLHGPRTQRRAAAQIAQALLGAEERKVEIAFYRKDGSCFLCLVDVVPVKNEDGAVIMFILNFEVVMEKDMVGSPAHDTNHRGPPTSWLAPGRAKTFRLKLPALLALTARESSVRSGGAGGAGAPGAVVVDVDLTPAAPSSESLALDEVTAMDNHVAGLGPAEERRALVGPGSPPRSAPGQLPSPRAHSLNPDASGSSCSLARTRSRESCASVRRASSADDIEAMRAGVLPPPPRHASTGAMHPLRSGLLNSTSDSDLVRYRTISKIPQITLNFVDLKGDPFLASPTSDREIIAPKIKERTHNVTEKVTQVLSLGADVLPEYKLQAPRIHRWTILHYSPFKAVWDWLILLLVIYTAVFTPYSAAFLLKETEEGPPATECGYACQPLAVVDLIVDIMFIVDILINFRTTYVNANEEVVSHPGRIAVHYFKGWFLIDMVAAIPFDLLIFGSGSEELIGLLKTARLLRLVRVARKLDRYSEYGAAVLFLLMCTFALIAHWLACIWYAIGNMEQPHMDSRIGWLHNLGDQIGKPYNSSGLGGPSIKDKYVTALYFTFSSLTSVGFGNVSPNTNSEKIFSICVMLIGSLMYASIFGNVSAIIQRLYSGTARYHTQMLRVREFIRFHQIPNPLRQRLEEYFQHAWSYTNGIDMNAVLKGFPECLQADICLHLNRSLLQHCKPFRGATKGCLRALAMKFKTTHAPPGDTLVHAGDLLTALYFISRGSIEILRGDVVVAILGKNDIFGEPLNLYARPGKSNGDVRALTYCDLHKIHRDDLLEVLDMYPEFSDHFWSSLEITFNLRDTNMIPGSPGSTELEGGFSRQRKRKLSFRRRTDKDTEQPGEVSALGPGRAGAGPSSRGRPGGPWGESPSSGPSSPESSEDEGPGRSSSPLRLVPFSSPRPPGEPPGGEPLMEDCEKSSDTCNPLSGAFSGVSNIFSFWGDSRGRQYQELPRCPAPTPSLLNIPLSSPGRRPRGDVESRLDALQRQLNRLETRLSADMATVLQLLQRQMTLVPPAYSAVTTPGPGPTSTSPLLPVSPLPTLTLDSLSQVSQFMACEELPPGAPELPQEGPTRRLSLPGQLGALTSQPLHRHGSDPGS
Experimental: Cardiovascular safety pharmacology assessments included an in vitro screen to evaluate the effects of DMB on cardiac ion channel and an in vivo evaluation of cardiovascular and hemodynamic effects in Beagle dogs. Electrophysiologic effects were evaluated in laboratory studies utilizing voltage-clamped human embryonic kidney cells transformed by adenovirus cDNA and transfected with cDNA in order to stably express the human ether a-go-go related gene (hERG). The effect on cellular hERG channels was evaluated at DMB concentrations up to 1 mM (138 μg/mL).

[3] = 28-Day repeat dose toxicity study in rats; assay type: in vivo, Sprague Dawley rats
Source text: Completed toxicology studies conducted with DMB include a single-dose toxicity study in Sprague-Dawley rats, escalating dose toxicity study in Beagle dogs, a repeat dose study of 14-Day duration in Sprague-Dawley rats and repeat-dose toxicity studies of 28-Day duration in Sprague-Dawley rats and Beagle dogs, and 26-Week studies in Sprague-Dawley rats and Beagle dogs. […] Reproductive toxicity studies include two dose-range finding studies, one in Sprague-Dawley rats, the other in New Zealand white rabbits. DMB was administered once a day (QD) orally via gavage; doses are expressed as the sodium salt. In addition, an array of genotoxicity studies were conducted with DMB.
There were no histologic correlates with these findings. […] These changes in organ weight were not associated with abnormal pathology and not considered adverse.
Kidney weight was not increased in the single surviving 2,000/1,500 mg/kg/day male. […] There were no test article-related histomorphologic alterations consistent with the increase in absolute or relative kidney weights at either dose level.
Several clinical pathology changes occurred in the 28-Day Sprague Dawley rat study. […] At ≧1,000 mg/kg/day, decreases in Hgb, Hct, MCV, and MCHC, were observed. Decreases in Hgb, Hct, and MCV were also seen in 500 mg/kg/day females. Activated partial thromboplastin time was decreased in males at ≧1,000 mg/kg/day and females at 2,000/1,500 mg/kg/day and prothrombin time was increased in males of both groups. […] These serum chemistry changes were associated with the decreases seen in body weights and food consumption in these groups.

[4] = in vivo; set-up: species or system Beagle dogs; details: Beagle, dog; for AUC(0-inf): both sexes, po
Experimental: DMB was administered orally by capsule to Beagle dogs for 26 weeks at dose levels of 0, 50, 150 and 300 mg/kg/day. Plasma levels were measured at 1 to 24 hours post-dose on Days 1 and 181. Peak plasma concentrations were measured at 1 to 4 hour postdose on Day 0, and at 1 to 8 hours postdose during Week 26. Systemic exposure increased with increasing dose level and was greater than dose-proportional on Day 0 and Week 26. […] The peak and extent of systemic exposure of Beagle dogs to DMB were similar in males and females. Systemic exposure values at Week 26 were 138 to 153% of the values at Day 0 for 50 mg/kg, 130% for 150 mg/kg, and 100 to 102% 300 mg/kg dose levels, indicating an accumulation of DMB during this time period for the 50 and 150 mg/kg dose levels and no accumulation at the 300 mg/kg dose level.
Toxicokinetic information from the 26-week rat (Table 7) and 26-week dog toxicity studies (Table 8) are compared to systemic exposure (AUC) levels determined in a clinical study.

[5] = system: E. coli tester strain WP2uvrA; assay: Ames reverse bacterial mutagenicity test; details: with and without S9 mix
Experimental: (§1) The standard battery of in vitro genetic toxicity tests were conducted with DMB. These tests were conducted with positive and vehicle controls, with and without metabolic activation, as appropriate, and in accordance with accepted guidelines.
(§2) For the Ames (reverse bacterial mutagenicity test), the tester strains used in the mutagenicity assay were S. typhimurium tester strains TA98, TA100, TA1535, and TA1537 and E. coli tester strain WP2uvrA. The assay was conducted in both the presence and absence of S9 mix along with concurrent vehicle and positive controls using three plates per dose.

[6] = system: S. typhimurium tester strains TA98, TA100, TA1535, and TA1537; assay: Ames reverse bacterial mutagenicity test; details: with and without S9 mix
Experimental: as §1, §2

[7] = system: human peripheral lymphocytes; assay: Chromosome aberrations in human peripheral lymphocytes; assay type: cell-based
Experimental: DMB was examined for the potential to induce chromosome aberrations in human peripheral lymphocytes in the presence and absence of an exogenous metabolic activation system (S9 mix). In the 3-hour cultures (without or with activation), the highest three concentrations (2450, 3500, and 5000 μg/mL) were analyzed for chromosome aberrations. In the 22-hour treatment, 288, 412 and 588 μg/ML were analyzed for chromosome aberrations. […] The aberrations in control cultures were within historical ranges. DMB was therefore considered negative for inducing structural or numerical chromosome aberrations in human peripheral lymphocytes with and without metabolic activation.

Compound: CCC(C)(C)C(=O)[O-].[Na+] [DMB, Sodium 2,2-dimethylbutyrate]
- Increase % γ Globin Chain Synthesis [1]: 6.6%
- Increase Fold (γ globin chain synthesis) [1]: 2.9
- % γ Globin Chain Synthesis, Treatment ([1]; baseline 3.4): 10.0%
- activity on hERG channel function [2]: essentially no activity
- RBC, lymphocyte, and leukocyte counts ([3]; 2,000/1,500 mg/kg/day): decreased
- NOAEL at 28 days ([3]; female, Sprague Dawley, rat, in vivo): 200 mg/kg/day and 32 mg/kg
- aspartate aminotransferase (AST) ([3]; males 1,000 mg/kg/day): slight increases
- alanine aminotransferase (ALT) ([3]; males 1,000 mg/kg/day, females 2,000/1,500 mg/kg/day): slight increases
- mean absolute and relative kidney weights ([3]; males 500 and 1,000 mg/kg/day, females 1,000 mg/kg/day): statistically significant, test article-related increases
- mean absolute and relative liver weights ([3]; males and females at 1,000 mg/kg/day): statistically significant, test article-related increases
- prothrombin time ([3]; males of both groups): increased
- Activated partial thromboplastin time ([3]; males ≧1,000 mg/kg/day, females 2,000/1,500 mg/kg/day): decreased
- Hgb, Hct, MCV, and MCHC ([3]; ≧1,000 mg/kg/day): decreases
- AUC(0-inf) ([4]; 50 mg/kg): 127 µg·h/mL
- AUC(0-inf) ([4]; 150 mg/kg): 473 µg·h/mL
- AUC(0-inf) ([4]; 300 mg/kg): 1470 µg·h/mL
- increase in exposure values for a 6-fold increase in dose (50 to 300 mg/kg/day) ([4]; female): 10.31 fold
- increase in exposure values for a 6-fold increase in dose (50 to 300 mg/kg/day) ([4]; female, 26 weeks): 7.58 fold
- increase in exposure values for a 6-fold increase in dose (50 to 300 mg/kg/day) ([4]; male): 12.85 fold
- increase in exposure values for a 6-fold increase in dose (50 to 300 mg/kg/day) ([4]; male, 26 weeks): 8.35 fold
- cytotoxicity (background lawn growth) [5]: no cytotoxicity was observed
- mutation counts ([5]; up to 5000 per plate): No increase in mutation counts
- cytotoxicity (background lawn growth) [6]: no cytotoxicity was observed
- mutation counts ([6]; up to 5000 per plate): No increase in mutation counts
- numerical aberrations (polyploidy or endoreduplication) [7]: No test article-related increase
- structural chromosome aberrations compared to vehicle-treated cultures ([7]; 3 h ± S9 up to 5000 μg/mL, 22 h up to 588 μg/mL): no test article-related increases
- induction of structural or numerical chromosome aberrations ([7]; with and without metabolic activation): negative
